Measurements reported in patent US12311054B2, “Compositions and methods of using propylene sulfide-based polymers for treatment of Chagas disease” (priority 2019, dated 2025).
Where two headings read alike, the source gives them in different places.

Key:
[1] = cited from earlier work
[2] = tested on: T. cruzi Tulauen strain trypomastigote; experiment: Anti-trypomastigote activity, resazurin assay, Tulauen strain; format: cell-based; settings: Trypanosoma cruzi, read-out: half-inhibitory concentration (IC50), Tulauan strain trypomastigote
Experimental: (§1) IC50 for two strains of T. cruzi. The trypancidal effectiveness of BNZ-PS for Y and Tulauen strain was evaluated in vitro using the resarzurin assay (FIG. 2a).
(§2) Resazurin method was used to evaluate in vitro anti-trypanosoma activity against Y trypomastigotes. 1×10^7 trypomastigotes mL^−1 were incubated in 96-well plates containing serial dilution of BNZ and BNZ-PS in RPMI […] medium with 5% FBS, penicillin (100 μL/mL), […] (100 μL/mL) and L-glutamine (2 mM). For BNZ, the stock solution (1024 mM) was prepared in DMSO and made serial dilution to 1024 μM, 512 μM, 256 μM, 128 μM, 64 μM, 32 μM, 16 μM, 8 μM, 4 μM. For BNZ-PS, the stock solution (BNZ 1170 μM) was made serial dilution to 256 μM, 128 μM, 64 μM, 32 μM, 16 μM, 8 μM, 4 μM, 2 μM, 1 μM, 0.5 μM. After incubation for 24 h, at 37° C. and 5% CO2, 10 μL of alamarBlue Cell Viability reagent (Invitrogen) were added in each well, then incubate at 37° C. for 4 h. The fluorescence was measure on a microplate reader (BMG Labtech) at 560/590 nm to evaluate trypomastigote viability. A log concentration vs response curve was generated and the BNZ IC50 was calculated in GraphPad Prism 7.0.

[3] = traditional oral formulation; cited from earlier work
[4] = tested on: T. cruzi Y strain amastigote; experiment: Anti-amastigote activity in infected H9C2 cells, Giemsa counting, Y strain; format: cell-based; settings: Trypanosoma cruzi, Y strain amastigotes in H9C2 cells, 48 h
[5] = tested on: T. cruzi-infected patients; settings: standard BNZ doses; cited from earlier work
[6] = tested on: T. cruzi Tulahuen strain amastigote (Luc-mNeonGreen); experiment: Anti-amastigote activity in infected H9C2 cells, bioluminescent quantification, Tulahuen strain; format: cell-based; settings: Trypanosoma cruzi, Tulauan strain amastigotes in H9C2 cells, bioluminescence, 48 h
Experimental: For the evaluation of anti-amastigote activity of T. cruzi Tulahuen strain, 5000 H9C2 cells were seeded in a 96 well clear bottom tissue culture plate (Thermo Scientific). After 24 hours, the culture was infected with Luc-mNeonGreen Tulahuen strain trypomastigotes at a 1:5 host-to-parasite cell ratio for 24 h. […] The medium was replaced every 24 h. At 48 h, 10 μL of 15 mg mL-1 luciferin were added into each well, and the luciferase intensity was measured using a IVIS Spectrum (Caliper Life Science) and the ROI was analyzed with Softmas Pro. Exposure time varied from 5 s to 15 s depending on signal intensity.

[7] = tested on: T. cruzi Y strain infected BALB/c mice; experiment: BNZ and BNZ-PS therapy in murine model of acute Chagas disease; format: in vivo, mouse
[8] = mice; cited from earlier work
[9] = tested on: T. cruzi; experiment: IC50 of free vs nanocarrier-loaded Benznidazole (description, stage and strain not stated); format: cell-based; settings: Trypanosoma cruzi; free vs loaded in nanocarrier; typical / estimated values
[10] = humans; cited from earlier work
[11] = Assessment of the toxicity of BNZ and BNZ-PS in vivo; design: species or system mouse; settings: BNZ 100 mg/kg
Experimental: […] Mice weight was recorded during the treatment course. […] Serums (Sera) were sent out to central lab (IDEXX BioResearch) to measure alanine aminotransferase (ALT/SGPT), aspartate aminotransferase (AST/SGOT), bile acid, bilirubin, blood urea nitrogen (BUN), creatinine, gamma-glutamyltransferase (GGT).

[12] = tested on: T. cruzi Y strain trypomastigote; experiment: Anti-trypomastigote activity, resazurin assay, Y strain; format: cell-based; settings: Trypanosoma cruzi, 24 h, read-out: half-inhibitory concentration (IC50), Y strain trypomastigote
Experimental: as §1
The Y strain of T. cruzi was used for all experiments. Epimastigotes were cultured using standard methods and tissue culture amastigotes and trypomastigotes were produced by the addition of log-phase epimastigotes to cultured H9C2 rat myoblast cells, which contain small numbers of metacyclic trypomastigotes capable of initiating mammalian cell infection. After several days of culture in H9C2 cells, amastigotes and trypomastigotes were purified for use in IC50 determination experiments.
as §2, with “For BNZ-PS, the stock solution (BNZ 1170 μM) was made serial dilution to 256 μM, 128 μM, 64 μM, 32 μM, 16 μM, 8 μM, 4 μM, 2 μM, 1 μM, 0.5 μM. After incubation for 24 h, at 37° C. and 5% CO2, 10 μL of alamarBlue Cell Viability reagent (Invitrogen) were added in each well, then incubate at 37° C. for 4 h.” left out

[13] = tested on: extracellular T. cruzi developmental stages; settings: cited from earlier work

## O=C(Cn1ccnc1[N+](=O)[O-])NCc1ccccc1 [BNZ, N-benzyl-2-(2-nitro-1H-imidazol-1-yl)acetamide]
[1]
  water solubility: practically insoluble in water
[1]; listed as Benznidazole (BNZ)
  water solubility: poor water solubility
[2]
  IC50: 12.4 µM
[3]
  fraction of drug bound to plasmatic proteins: over 40%
[4]
  IC50: 30.1 µM
[5]
  patients interrupting treatment due to severe side effects: 20%
[6]
  IC50: 12.5 µM
[7]; end of experiment, 25 dpi
  heart parasitemia (qPCR): significantly reduces the heart parasitemia
[7]; infected mice treated from d7, monitored to d25
  suppression of parasitemia: Effective suppression of parasitemia
[8]
  half-life (t1/2): 2 h
[9]
  IC50: ~33 µM
[10]
  half-life (t1/2): 12 h
[11]; d21
  hepatotoxicity, serum ALT: show hepatotoxicity as reflected by increased serum ALT
[11]; BNZ-PS 1.5 or 0.15 mg/kg, 3 weeks
  body weight during treatment: lose weight
[12]
  IC50: 55.9 µM

## C[C@@H]1[C@H](O)[C@@H](C)/C=C/C=C/C=C/C=C/C=C/C=C/C=C/[C@H](O[C@@H]2O[C@H](C)[C@@H](O)[C@H](N)[C@@H]2O)C[C@@H]2O[C@](O)(C[C@@H](O)C[C@@H](O)[C@H](O)CC[C@@H](O)C[C@@H](O)CC(=O)O[C@H]1C)C[C@H](O)[C@H]2C(=O)O [Amphotericin B]
[13]
  activity against extracellular T. cruzi developmental stages: satisfactory
